Results: patent EP4140481A1, “PROTEIN-OLIGOMER BINDING AGENTS AND THERAPEUTIC USES THEREOF” (Galyan Bio, Inc., priority 2021, dated 2023)

Legend:
[1] = test system: CREB-binding protein (CBP) colocalization with mHTT; assay: Co-localization of CREB-binding protein (CBP) with mHTT; assay type: in vivo, R6/2 mice; settings: treated animals of the R6/2 study versus untreated TG mice; p = 0.02
From the text: Staining - Goat anti-Rabbit IgG (H+L) Alexa Fluor 647 (1:500, ThermoFisher Invitrogen) was used as a secondary antibody for binding to CBP antibody. DAPI (Sigma-Aldrich) was used to identify the nuclei. Goat anti-Mouse IgG (H+L), Alexa Fluor 488 (1:500, A-11034, ThermoFisher Invitrogen) was used as a secondary antibody for binding to EM48 antibody. Mouse anti-human-mHTT (EM48, 1:500, Sigma-Aldrich), was used to stain huntingtin. Rabbit anti-CBP (1:100, Sigma-Aldrich) was used a primary antibody to stain CBP.
The blocking buffer was freshly prepared and consisted of PBS (Sigma-Aldrich) with 5% normal goat serum (NGS), 0.2% BSA, 0.2% lysine and 0.2% glycine. […] On day six, samples were washed and then incubated with DAPI containing mounting medium Fluoroshield (Sigma-Aldrich), in order to counterstain the nuclei and preserve the fluorescence. […]
CBP colocalization with mHTT and quantitative assessment of the images were measured (Lee, J. et al., Acta Neuropathol. 2017 Nov;[…]:729-748; Steffan, J.S. et al., Nature. 2001 Oct 18;413(6857):739-743; Nucifora, F.C. et al., Science. 2001 Mar 23;291(5512):2423-2428). In brief, regions of interest (colocalized areas) in multi-channel images from two or three of the overlapping fluorescence dyes were selected using the Plugin CoLoc2 of FIJI. The colocalization score of identified areas was calculated. […]

R6/2 mice = assay: Rotarod in R6/2 mice of Huntington's disease; assay type: in vivo; settings: for rotarod performance: 33 mg/kg i.p. QD
Description: Methods ― Total of 20 female and male R6/2 mice and 10 female and male wild-type littermate control mice (WT) were used in the study. The mice were genotyped and the R6/2 mice were divided into different treatment groups based on their litter and baseline body weight. The treatment with Vehicle or Compound 22 (33 mg/kg; 5 ml/kg, i.p. QD) was started at 4 weeks of age after the baseline behavioral tests (Figure 6). Body weights were measured at 3 weeks of age and twice a week until the end of the study.
The experimental groups were: • Group 1) 10 wild-type mice (mixed gender) treated with Vehicle (5 ml/kg, i.p., QD) starting at 4 weeks of age • Group 2) 10 R6/2 mice (mixed gender) treated with Vehicle (5 ml/kg, i.p., QD) starting at 4 weeks of age • Group 3) 10 R6/2 mice (mixed gender) treated with Compound 22 (33 mg/kg; 5 ml/kg, i.p. QD) starting at 4 weeks of age
Compound Delivery and Dosing - Treatment with Compound 22 (33 mg/kg; 5 ml/kg, i.p. QD) or Vehicle was started at age week 4 and continued until the 12 weeks of age. The test articles were handled and stored and the dose formulations were prepared according to detailed instructions provided by the Sponsor.
Rotarod - The Rotarod test was perfomed at 4 (pre-treatment baseline), 6, 8 and 10 weeks of age. Each testing day included a training trial of 5 min at 4 RPM on the Rotarod apparatus (AccuScan Instruments, Columbus, USA). 30 minutes later, the animals were tested for 3 consecutive accelerating trials of 6 min with the speed changing from 0 to 40 RPM over 360 seconds and with an inter-trial interval of at least 30 min. The latency to fall from the rod was recorded. Mice remaining on the rod for more than 360 s were removed and their time scored as 360 sec.
[…] littermate control mice (F1 generation) were bred by Charles River Laboratories, Sulzfeld, Germany by mating (F0 generation) WT males (C57BL/6J; systematically re-infused with pedigreed JAX mice, stock 000664) with ovarian transferred (OT) TG females (JAX, stock 006494). After weaning mice were sent from Germany to Charles River, Kuopio, Finland at an age of 3 weeks. Following genotyping and acclimation, the mice were enrolled in the study.

Cc1[nH]c2ccc(C(=O)NCCN(C(C)C)C(C)C)cc2c1C [Compound 22]
reduction of CBP colocalization with mHTT [1]: 4 fold
rotarod performance (R6/2 mice; female R6/2 mice at 10 weeks of age, normalized to 4-week baseline, versus vehicle): significantly improved
rotarod performance (R6/2 mice; pooled genders or males, versus vehicle treated R6/2 mice): no significant differences
mean latency to fall (R6/2 mice; 33 mg/kg intraperitoneal once daily, female R6/2 mice at 10 weeks of age (vehicle 55.7 s)): 108.3 s
improvement of latency to fall (R6/2 mice; in comparison to untreated model mice, 10 weeks of age): 94%
